Data as given in patent publication US7514529B2, “Peptide mimotopes of lipooligosaccharide from nontypeable Haemophilus influenzae as vaccines” (The United States of America as represented by the …, priority 2003, dated 2009).

System: target rabbit anti-LOS antibody
Assay: Peptide ELISA (NucleoLink strips): synthetic peptides binding the target anti-LOS antibody
Conditions: 5 μg peptide coupled to strip, 0.4 μg/well target antibody, average of duplicates
Procedure: Four peptides were synthesized with a spacer (GGGS) at each C-terminus (Genemed Synthesis, Inc., San Francisco, Calif.). Binding reactivity of the synthetic peptides to the target anti-LOS antibody was tested with a peptide ELISA using Nunc NucleoLink™ Strips (Fisher Scientific, Pittsburgh, Pa.). Following the instructions of the product with modifications, the strips were coated covalently with its amino groups to the C-terminal carboxyl groups of the synthetic peptides by a coupling reagent, [1-Ethyl-3-(3-dimethylaminopropyl) carbodiimide HCl] (EDC, Pierce). Briefly, peptides and 0.1 M 1-methyl-imidazole (Meim) (Sigma-Aldrich) at pH 7 were pre-cooled on ice, and a 100 μl of individual peptide solution with 5 μg of peptide in 10 mM MeIm was prepared in a well of strips on ice. This peptide solution (75 μl) was mixed with 25 μl of freshly prepared 0.2 M EDC in 10 mM MeIm in another well of the strips. The strips were sealed and incubated at 50° C. for 5 h. After removing the reaction mixture, the strips were soaked with washing buffer (freshly prepared 0.25% SDS in 0.4 N NaOH and warmed at 50° C.) for 5 min and emptied. This step was performed for three times, followed by another three washings without the 5-min soaking. After removing the washing buffer, the strips was washed thoroughly with deionized water. The following steps were the same as described in the LOS ELISA (Gu et al. 1996 Infect Immun 64:4047). After blocking with 1% BSA in PBS, the target anti-LOS antibody was added in the amount of 0.4 μg/well followed by a goat anti-rabbit IgG alkaline phosphatase conjugate. The binding reactivity of the synthetic peptides to the target anti-LOS antibody was evaluated by OD405 values at 30 min after adding a substrate.

Sequence	Binding reactivity (OD405)
NMMKYISPPIFL [Peptide 3]	1.11
NMMRFTELSTPS [Peptide 4]	0.99
NMMNYIMDPRTH [Peptide 2]	2.52
NMMRFTSQPPNN [Peptide 1]	0.40
TLAHHKKPWILR [Peptide 5, control peptide from an unrelated clone, reference compound]	0.33

Same assay, conditions: peptide-coated ELISA

Sequence	Binding reactivity of synthetic peptides to target anti-LOS antibody (in words)
NMMKYISPPIFL [Peptide 3]	higher binding reactivity
NMMRFTELSTPS [Peptide 4]	higher binding reactivity
NMMNYIMDPRTH [Peptide 2]	higher binding reactivity
NMMRFTSQPPNN [Peptide 1]	did not show good antigenic mimic of the LOS
